Legend:
CDC2 mRNA = assay: Northern blot of CDC2 mRNA in C3 cells; details: 40 μM
TC-1 cell line = assay: TC-1 cell growth; details: TC-1 cells
Method: (§1) FIG. 9. […] (a-d) C3, CEM-T4, C33a, and TC-1 cells were treated with different concentrations of M4N. The number of cells present at the initiation of the experiment is indicated as Day 0. After three days the number of viable cells were counted and plotted versus the M4N concentration. […] After 3 days, one-half of the M4N treated cells were given fresh media containing only 1% DMSO (M-D), while the rest of the cells were given fresh media with the same conditions (second media change). The cells were counted daily and plotted versus the time of treatment.

[1] = test system: SP1-regulated HPV E6/E7 promoter; assay: HPV16 LCR (P97 promoter) luciferase reporter assay in C33A cells; details: thirty hours after drug treatment
HSV-1 = HSV-1 skin infection in guinea pig, topical treatment; format: in vivo
Method: The drug M4N was also tested in inhibition of HSV-1 replication in skin infections in guinea pigs. Guinea pig skin was pinched with needles and HSV-1 […] was applied topically to infect each pricked area. M4N was then applied to the pricked infected area following infection daily for 6 days.
Six areas of bared back skin of a guinea pig were punched sterilely with a 5=DIN needle. Two areas were infected with HSV-1 (HSV-C, culture supernatant, or isolated HSV in saline, HSV-SC). The other four areas were infected with HSV-SC.

[2] = test system: HIV LTR promoter (Tat-transactivation); assay: Tat-transactivation of HIV promoter activity in Cos cells, SEAP assay; format: cell-based; details: read-out: IC50 for inhibition of HIV Tat-regulated transactivation
From the text: As reported previously, methylated NDGA derivatives can block Sp1 binding to the enhancer sites of a variety of viral promoters including HIV, ICP4 of HSV, E6/E7 gene of HPV (8, 9, 10). We further tested the G4N effect on the Tat-transactivation of HIV promoter activity in Cos cells by the SEAP assay as previously described. […] There were 60-fold or more increase in SEAP expression when Cos cells were cotransfected with the CMV promoter driven Tat gene (8). Such Tat-driven ransactivation of the HIV LTR promoter activity was previously shown to be Sp1 regulated (7, 8). In the presence of G4N, we observed inhibition of HIV transactivation in a dose-dependent fashion (FIG. 14). […]. The differences perhaps are due to the chemical nature of the test compounds affecting the drug uptake to the cells.

caspase-3 = details: C3 cells, 72 hours
C3 tumor = assay: Histopathology of excised C3 tumors; format: in vivo, mice; details: hematoxylin and eosin sections
Method: Drug treated (M4N) and DMSO vehicle-treated or untreated tumors (CON) from two groups of mice were prepared for histopathology examination. The excised tumors were immediately fixed and then stored in 4% formaldehyde in phosphate buffered saline. The fixed tissue was then dehydrated through a series of graded alcohols and xylene and embedded in paraffin. The paraffin tissue blocks were thin sectioned and stained for microscopy with hematoxylin and eosin. […] They show the high nuclear/cytoplasmic ratio, pleomorphic nuclear changes, high mitotic figures, spindle like sarcoma shape, and infiltration into the surrounding tissue characteristic of cancer cells.

C3 cells [3] = test system: C3 cells
Method: as §1
HPV-16 transformed immortal mouse epithelial cells (C3 cells) were plated at a density of 10^5 cells per vial.
The effect on C3 growth following removal of M4N from the medium was also examined. C3 cells were plated at a density of 10^4 cells per vial. […] The other ⅔ of the cell vials were washed and replaced with the same media administered before.
This hypothesis was tested by examining the antiproliferative effect of M4N on a number of different cell lines.

survivin gene expression = assay: RT-PCR analysis of survivin gene expression in C3 cells; format: cell-based, mouse; details: 40 μM
Method: FIG. 17. RT-PCR Analysis of Survivin Gene Expression. […] Bottom: the corresponding GAPDH controls. Band intensities were quantitated with Scion Image. (b) Survivin RT-PCR product signals were normalized to those of the GAPDH controls and plotted.
M4N Treatment. C3 cells (5×10^6) were seeded in 150-mm plates and allowed to attach to the plates. Twenty-four hours after seeding, cultures were washed twice with PBS and treated with M4N dissolved in 1% DMSO mixed with the growth medium.
RT-PCR analysis. mRNA was isolated by the guanidinium thiocyanate and phenol method from the cultured cells as described in Molecular Cloning (40). […] The c-DNA products obtained were amplified under the PCR conditions: […], 60° C. for 55 seconds, and 72° C. for 1 minute for 30 cycles.

CEM-T4 line = assay: CEM-T4 cell growth; format: cell-based, human; details: three days
Method: as §1

[4] = Initial animal toxicity studies of M4N in mice; format: in vivo
C3 cells [5] = assay: Cell cycle DNA content by propidium iodide flow cytometry, C3; details: C3, 72 hours
From the text: The cells were trypsinized, fixed with ethanol, stained with propidium iodide, and were subsequently analyzed by flow cytommetry. […] The indicated stages of the cell cycle are labeled and correspond to the relative cellular DNA compliment as determined by staining intensity.

E6/E7 mRNA = assay: RT-PCR of HPV-16 E6/E7 transcripts in C3 cells; details: 40 μM
Method: The RTPCR samples were removed after increasing cycles of amplification and resolved on an agarose gel.
The RT-PCR product was analyzed on a 2% agarose gel.

In the case of `COc1ccc(C[C@@H](C)[C@@H](C)Cc2ccc(OC)c(OC)c2)cc1OC` [M4N, tetra-O-methylnordihydroguaiaretic acid], the “amount of CDC2 mRNA” value (CDC2 mRNA; 24 hours) is reported as “reduced”, the “amount of CDC2 mRNA” value (CDC2 mRNA; 72 hours) is reported as “nearly eliminated” and the “"threshold" concentration above which the percentage of viable cells decreases precipitously” value (TC-1 cell line) is reported as 40 µM. For the same molecule, the “Sp1 regulated transcription initiation at the HPV E6/E7 promoter (specific luciferase activity)” value [1] was “dramatically reduces”, the “blisters in HSV-1 infected skin areas at day 6” value (HSV-1; 30 μl of 60 mg/ml in DMSO, five times per day for six days) was “no blisters” and the “shedding of the virus” value (HSV-1; 4 days after the drug treatment) was “no shedding of the virus”. The IC50 [2] was 11 µM, the caspase-3 cleavage (caspase-3) was “caspase-3 activation” and the “histopathology of treated tumors” value (C3 tumor) was “significant necrosis”. For the same molecule, the “rate of cell growth following the change to drug-free media” value (C3 cells [3]; 40 μM for 73 hours, then media with 1% DMSO only) was “not notably increased”, the “fraction of viable cells compared to the total cell count” value (C3 cells [3]; 40 μM in 1% DMSO) was “remained constant” and the “growth and division of C3 cells” value (C3 cells [3]; 40 μM in 1% DMSO, versus DMSO only control) was “markedly reduced”. The “"threshold" concentration above which the percentage of viable cells decreases precipitously” value (C3 cells [3]; C3 cells) was 60 µM, the “cell death after prolonged exposure” value (C3 cells [3]; C3 cells, eight days, 40 μM) was “no increase in cell death” and the “viable fraction of arrested cells” value (C3 cells [3]; the four cell lines treated (C3, CEM-T4, C33a, TC-1), up to the threshold concentration) was over 95%. For the same molecule, the “reduction in survivin expression” value (survivin gene expression; 24 hours) was 65%, the “reduction in survivin expression” value (survivin gene expression; 72 hours) was 80% and the “growth of CEM-T4 line” value (CEM-T4 line) was “blocked”. The “non-toxic to mice at concentrations as high as” value ([4]; given either subcutaneously or by IV) was at most 375 mg/kg, the “non-toxic to mice at concentrations as high as” value ([4]; given intraperitoneally) was at most 300 mg/kg and the “cells showing G2/M DNA content” value (C3 cells [5]) was over 90%. The “levels of the E7 transcript” value (E6/E7 mRNA; 5 to 72 hours, rtPCR) was “clear reduction” and the “amplified E7 (321 bp) and E6 (204 bp) RT-PCR products” value (E6/E7 mRNA; 71 hours, following 30 cycles of amplification) was “barely detectable”.

Source: patent publication US8318815B2, “Method for treatment of tumors using nordihydroguaiaretic acid derivatives” (priority 1999, dated 2012)
